The values that follow come from patent US20240018119A1, “CARBOXAMIDE DERIVATIVE AND PHARMACEUTICAL COMPOSITION COMPRISING SAME AS ACTIVE INGREDIENT FOR PREVENTING OR TREATING MENTAL ILLNESS” (DAEGU-GYEONGBUK MEDICAL INNOVATION FOUNDATION, priority 2020, published 2024).

Holding throughout (type): cell-based
One assay addresses T1, serotonin transporter (Homo sapiens, UniProt P31645).
T1 construct: expressed in transfected cells; host or cells: HEK-293
As to the kind of experiment: Serotonin reuptake inhibition in transporter-transfected HEK-293 cells ([3H]-5-HT). The conditions noted are these: for Triple reuptake inhibition (Ratio %) SERT: compound 1 μM, [3H]-5-HT, relative to control without compound (100%), lower = more inhibition; for IC50: concentration at which Ratio % is 50%, 6 concentrations 1 nM to 1 μM, read-out: Triple reuptake inhibition (IC50, μM) SERT. The method, then:
(§1) To evaluate the reuptake inhibitory effect on dopamine, the dopamine transporter cDNA was transfected using the HEK-293 cell line, and then sub-seeded in a 24 well plate the next day. After removing the medium, each compound of the Examples or Comparative Examples diluted to 1 μM in uptake buffer was added to a concentration of 200 μl/well and cultured at 37° C. for 15 minutes. 100 μl of uptake buffer containing 20-30 nM [3H]-DA was added and cultured at 37° C. for 5 minutes. The reaction solution was quickly removed and washed three times with 1 ml ice-cold uptake buffer. After dissolving the resultant in 1% SDS (0.5 ml), the degree of binding of radioisotope-labeled dopamine to the transporter was measured.
(§2) For norepinephrine (NE) and serotonin (5-HT), the degree of binding of radioisotope-labeled norepinephrine or serotonin to the transporter was measured in the same manner as above, except that cells transfected with NE or 5-HT transporter cDNA were used and [3H]-NE or [3H]-5-HT was used as a substrate.
(§3) In addition, when evaluating the reuptake inhibitory effect on dopamine, norepinephrine, and serotonin, the same method was performed without treating each compound of the Examples or Comparative Examples as a control, the degree of binding of radioisotope-labeled dopamine, norepinephrine, and serotonin to the transporter was measured, and by using this as a standard (100%), the triple reuptake inhibitory effect was evaluated as a relative ratio (Ratio %). That is, in the control group, the binding of dopamine, norepinephrine, and serotonin to transporters is not inhibited, but when each compound of the Examples is treated and thus the binding is inhibited, the Patio % value decreases.
In addition, in the case of the compound of Comparative Example 1, IC50 was obtained by the same method as the Example Compounds.

Another assay addresses T2, dopamine transporter (Homo sapiens, UniProt Q01959).
T2 construct: expressed in transfected cells; host or cells: HEK-293
As to the kind of experiment: Dopamine reuptake inhibition in transporter-transfected HEK-293 cells ([3H]-DA). The note with it: for Triple reuptake inhibition (Ratio %) DAT: compound 1 μM, 20-30 nM [3H]-DA, relative to control without compound (100%), lower = more inhibition; for IC50: concentration at which Ratio % is 50%, 6 concentrations 1 nM to 1 μM, read-out: Triple reuptake inhibition (IC50, μM) DAT. On the procedure:
as §1, §3
(§4) Meanwhile, the Patio % values were compared, and in the case of the compounds of Examples 6, 9, 10, 19, 20, 22, 24, 28, 30, 31, 32, 33, 35, 41, 42, 48, 49, 51, 55, 56, 59, 61, 63, 64, 65, 66, 74 and 76 with excellent reuptake inhibitory effects on dopamine, norepinephrine and serotonin, the concentration at which the Ratio % is 50% was calculated using a total of 6 concentrations (1 nM, 5 nM, 10 nM, 50 nM, 100 nM, and 1 μM) and expressed as IC50. In addition, in the case of the compound of Comparative Example 1, IC50 was obtained by the same method as the Example Compounds.

For assay [1], the target named is T3, norepinephrine transporter (Homo sapiens, UniProt P23975).
T3 construct: expressed in transfected cells; host or cells: HEK-293
As to the kind of experiment: Norepinephrine reuptake inhibition in transporter-transfected HEK-293 cells ([3H]-NE). The note with it: for Triple reuptake inhibition (Ratio %) NET: compound 1 μM, [3H]-NE, relative to control without compound (100%), lower = more inhibition; for IC50: concentration at which Ratio % is 50%, 6 concentrations 1 nM to 1 μM, read-out: Triple reuptake inhibition (IC50, μM) NET. On the procedure:
as §1, §2, §3, §4

T2 sequence (Q01959 whole entry): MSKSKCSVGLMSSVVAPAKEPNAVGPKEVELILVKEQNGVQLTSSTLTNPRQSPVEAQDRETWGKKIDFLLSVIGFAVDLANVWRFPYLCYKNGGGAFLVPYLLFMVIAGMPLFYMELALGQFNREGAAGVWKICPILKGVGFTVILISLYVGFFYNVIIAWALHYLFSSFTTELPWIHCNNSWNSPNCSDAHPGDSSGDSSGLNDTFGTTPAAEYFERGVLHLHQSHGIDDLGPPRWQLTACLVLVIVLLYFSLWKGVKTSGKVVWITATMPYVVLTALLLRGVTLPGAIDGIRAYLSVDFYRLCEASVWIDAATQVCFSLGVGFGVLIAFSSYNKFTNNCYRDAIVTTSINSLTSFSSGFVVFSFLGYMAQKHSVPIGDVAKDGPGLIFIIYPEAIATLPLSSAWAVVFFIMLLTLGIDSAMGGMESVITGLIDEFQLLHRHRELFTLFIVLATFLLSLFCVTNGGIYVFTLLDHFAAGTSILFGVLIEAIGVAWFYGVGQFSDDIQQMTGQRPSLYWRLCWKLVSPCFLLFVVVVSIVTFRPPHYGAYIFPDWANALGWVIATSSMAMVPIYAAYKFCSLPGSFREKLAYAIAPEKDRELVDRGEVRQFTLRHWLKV
T1 sequence (P31645 whole entry): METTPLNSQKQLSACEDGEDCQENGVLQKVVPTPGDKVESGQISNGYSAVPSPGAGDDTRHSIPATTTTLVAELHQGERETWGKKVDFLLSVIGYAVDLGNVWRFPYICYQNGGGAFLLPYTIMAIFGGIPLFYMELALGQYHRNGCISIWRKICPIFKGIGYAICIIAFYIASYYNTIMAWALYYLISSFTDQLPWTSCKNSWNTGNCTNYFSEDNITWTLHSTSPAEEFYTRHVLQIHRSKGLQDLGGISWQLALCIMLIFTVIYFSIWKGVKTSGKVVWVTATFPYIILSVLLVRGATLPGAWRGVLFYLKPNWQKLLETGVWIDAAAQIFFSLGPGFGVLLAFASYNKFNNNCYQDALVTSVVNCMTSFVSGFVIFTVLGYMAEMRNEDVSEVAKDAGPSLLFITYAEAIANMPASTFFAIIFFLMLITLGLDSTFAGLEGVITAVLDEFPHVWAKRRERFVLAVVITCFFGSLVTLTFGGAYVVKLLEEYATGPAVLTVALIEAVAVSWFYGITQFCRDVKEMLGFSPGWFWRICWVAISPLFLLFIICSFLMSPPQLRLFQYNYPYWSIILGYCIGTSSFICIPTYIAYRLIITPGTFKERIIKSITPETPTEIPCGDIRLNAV
T3 sequence (P23975 whole entry, species assumed): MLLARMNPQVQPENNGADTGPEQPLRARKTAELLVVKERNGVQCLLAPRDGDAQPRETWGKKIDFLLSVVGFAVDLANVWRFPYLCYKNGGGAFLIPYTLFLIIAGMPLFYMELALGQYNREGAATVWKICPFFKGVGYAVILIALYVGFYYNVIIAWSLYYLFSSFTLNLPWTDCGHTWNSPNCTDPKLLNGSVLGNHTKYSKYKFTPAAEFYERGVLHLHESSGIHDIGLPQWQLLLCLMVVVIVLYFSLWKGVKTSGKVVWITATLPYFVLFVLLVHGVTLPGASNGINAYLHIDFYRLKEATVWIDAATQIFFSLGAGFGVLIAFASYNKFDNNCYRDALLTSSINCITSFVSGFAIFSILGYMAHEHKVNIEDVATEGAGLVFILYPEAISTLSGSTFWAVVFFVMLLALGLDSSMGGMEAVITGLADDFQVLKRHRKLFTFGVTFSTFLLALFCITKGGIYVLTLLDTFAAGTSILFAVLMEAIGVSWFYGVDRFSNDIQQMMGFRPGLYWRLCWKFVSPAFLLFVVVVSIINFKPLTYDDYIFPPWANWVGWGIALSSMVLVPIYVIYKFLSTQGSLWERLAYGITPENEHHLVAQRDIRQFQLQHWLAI

Take `O=C(NCCN1CCN(c2cccc(C(F)(F)F)c2)CC1)c1ccc2cc(Br)ccc2c1` [Example 2]: at serotonin transporter, the “Triple reuptake inhibition (Ratio %) SERT” value was 78.42%. In addition, the “Triple reuptake inhibition (Ratio %) DAT” value on dopamine transporter turned out to be 107.77%. Further, the “Triple reuptake inhibition (Ratio %) NET” value in assay [1] is 120.40%.

Take `O=C(NCCN1CCN(c2ccc(Cl)c(Cl)c2)CC1)c1ccc2cc(Br)ccc2c1` [Example 3, 6-bromo-N-(2-(4-(3,4-dichlorophenyl)piperazin-1-yl)ethyl)-2-naphthamide]: the “Triple reuptake inhibition (Ratio %) SERT” value on serotonin transporter is on record as 77.91%. In addition, the “Triple reuptake inhibition (Ratio %) DAT” value at dopamine transporter amounted to 104.38%. Further, the “Triple reuptake inhibition (Ratio %) NET” value in assay [1] came to 110.56%.

As for `O=C(NCCN1CCN(c2cccc(Cl)c2Cl)CC1)c1ccc2cc(Br)ccc2c1` [Example 4, 6-bromo-N-(2-(4-(2,3-dichlorophenyl)piperazin-1-yl)ethyl)-2-naphthamide], the “Triple reuptake inhibition (Ratio %) SERT” value at serotonin transporter is reported as 73.53%. For the same compound, the “Triple reuptake inhibition (Ratio %) DAT” value on dopamine transporter was 108.51%. Also, the “Triple reuptake inhibition (Ratio %) NET” value in assay [1] is 121.24%.

Consider `O=C(NCCN1CCN(Cc2ccccc2)CC1)c1ccc2cc(Br)ccc2c1` [Example 5, N-(2-(4-benzylpiperazin-1-yl)ethyl)-6-bromo-2-naphthamide], for which the “Triple reuptake inhibition (Ratio %) SERT” value on serotonin transporter worked out at 76.90%. In addition, the “Triple reuptake inhibition (Ratio %) DAT” value at dopamine transporter is on record as 96.26%. Further, in assay [1], the “Triple reuptake inhibition (Ratio %) NET” value stood at 94.24%.

By IC50 is commonly meant the concentration that gives 50% inhibition. In the case of `O=C(NCCN1CCC(Cc2ccc(F)c(F)c2)CC1)c1ccc2cc(Br)ccc2c1` [Example 6, 6-bromo-N-(2-(4-(3,4-difluorobenzyl)piperidin-1-yl)ethyl)-2-naphthamide], at serotonin transporter, the “Triple reuptake inhibition (Ratio %) SERT” value turned out to be 73.84% and the IC50 was 14 µM. Besides, on dopamine transporter, the “Triple reuptake inhibition (Ratio %) DAT” value is on record as 57.66% and the IC50 came to 3.93 µM. For the same compound, the “Triple reuptake inhibition (Ratio %) NET” value in assay [1] amounted to 34.16%.

In the case of `O=C(NCCN1CCN(Cc2ccc(F)c(F)c2)CC1)c1ccc2cc(Br)ccc2c1` [Example 7, 6-bromo-N-(2-(4-(3,4-difluorobenzyl)piperazin-1-yl)ethyl)-2-naphthamide], the “Triple reuptake inhibition (Ratio %) SERT” value at serotonin transporter is reported as 103.19%. Also, on dopamine transporter, the “Triple reuptake inhibition (Ratio %) DAT” value is listed as 82.42%. Besides, in assay [1], the “Triple reuptake inhibition (Ratio %) NET” value stood at 60.83%.

As to `O=C(NCCn1ccc(-c2ccc(F)cn2)n1)c1ccc2cc(Br)ccc2c1` [Example 8, 6-bromo-N-(2-(3-(5-fluoropyridin-2-yl)-1H-pyrazol-1-yl)ethyl)-2-naphthamide], the “Triple reuptake inhibition (Ratio %) SERT” value on serotonin transporter stood at 86.83%. On dopamine transporter, the “Triple reuptake inhibition (Ratio %) DAT” value came out at 97.06%. Further, the “Triple reuptake inhibition (Ratio %) NET” value in assay [1] was found to be 95.78%.

On to `O=C(NCCN1CCC(Cc2ccc(Cl)c(Cl)c2)CC1)c1ccc2cc(Br)ccc2c1` [Example 9, 6-bromo-N-(2-(4-(3,4-dichlorobenzyl)piperidin-1-yl)ethyl)-2-naphthamide], for which, at serotonin transporter, the “Triple reuptake inhibition (Ratio %) SERT” value was determined as 9.92% and the IC50 was 3.07 µM. Besides, on dopamine transporter, the “Triple reuptake inhibition (Ratio %) DAT” value is reported as 78.56% and the concentration for half-maximal inhibition (IC50) came out at 2.91 µM. Further, the “Triple reuptake inhibition (Ratio %) NET” value in assay [1] was found to be 98.42%.

Consider `O=C(NCCN1CCC(Cc2ccc(Cl)c(Cl)c2)CC1)c1cc(Cl)cc(Cl)c1` [Example 10, 3,5-dichloro-N-(2-(4-(3,4-dichlorobenzyl)piperidin-1-yl)ethyl)benzamide], for which, at serotonin transporter, the “Triple reuptake inhibition (Ratio %) SERT” value is 37.57%. For the same compound, at dopamine transporter, the “Triple reuptake inhibition (Ratio %) DAT” value is 44.72% and the 50% inhibitory concentration (IC50) was 4.29 µM. Also, in assay [1], the “Triple reuptake inhibition (Ratio %) NET” value worked out at 76.85% and the half-maximal inhibitory concentration (IC50) was 14.3 µM.

On to `O=C(NCCN1CCN(Cc2ccc(Cl)c(Cl)c2)CC1)c1ccc(Cl)c(Cl)c1` [Example 11, 3,4-dichloro-N-(2-(4-(3,4-dichlorobenzyl)piperazin-1-yl)ethyl)benzamide], for which, at serotonin transporter, the “Triple reuptake inhibition (Ratio %) SERT” value is reported as 63.40%. Moreover, the “Triple reuptake inhibition (Ratio %) DAT” value at dopamine transporter turned out to be 75.29%. Moreover, the “Triple reuptake inhibition (Ratio %) NET” value in assay [1] is 82.25%.

For the compound `O=C(NCCN1CCN(c2cccc(C(F)(F)F)c2)CC1)c1ccc(Cl)c(Cl)c1` [Example 12, 3,4-dichloro-N-(2-(4-(3-(trifluoromethyl)phenyl)piperazin-1-yl)ethyl)benzamide], the “Triple reuptake inhibition (Ratio %) SERT” value at serotonin transporter is 93.46%. Also, the “Triple reuptake inhibition (Ratio %) DAT” value at dopamine transporter is 103.97%. Also, in assay [1], the “Triple reuptake inhibition (Ratio %) NET” value turned out to be 94.42%.

Consider `O=C(NCCN1CCN(c2cccc(Cl)c2Cl)CC1)c1ccc(Cl)c(Cl)c1` [Example 13, 3,4-dichloro-N-(2-(4-(2,3-dichlorophenyl)piperazin-1-yl)ethyl)benzamide], for which, at serotonin transporter, the “Triple reuptake inhibition (Ratio %) SERT” value is reported as 89.10%. For the same compound, at dopamine transporter, the “Triple reuptake inhibition (Ratio %) DAT” value stood at 106.09%. Moreover, the “Triple reuptake inhibition (Ratio %) NET” value in assay [1] came to 94.42%.

Take `O=C(NCCN1CCN(c2ccc(Cl)c(Cl)c2)CC1)c1ccc(Cl)c(Cl)c1` [Example 14, 3,4-dichloro-N-(2-(4-(3,4-dichlorphenyl)piperazin-1-yl)ethyl)benzamide]: the “Triple reuptake inhibition (Ratio %) SERT” value on serotonin transporter came out at 88.61%. For the same compound, the “Triple reuptake inhibition (Ratio %) DAT” value at dopamine transporter came to 94.20%. The “Triple reuptake inhibition (Ratio %) NET” value in assay [1] is on record as 105.49%.

As to `O=C(NCCN1CCN(Cc2ccccc2)CC1)c1ccc(Cl)c(Cl)c1` [Example 15, N-(2-(4-benzylpiperazin-1-yl)ethyl)-3,4-dichlorobenzamide], the “Triple reuptake inhibition (Ratio %) SERT” value at serotonin transporter worked out at 114.75%. The “Triple reuptake inhibition (Ratio %) DAT” value on dopamine transporter worked out at 85.21%. Besides, the “Triple reuptake inhibition (Ratio %) NET” value in assay [1] came to 72.94%.

Consider `O=C(NCCN1CCN(Cc2ccc(F)c(F)c2)CC1)c1ccc(Cl)c(Cl)c1` [Example 16, 3,4-dichloro-N-(2-(4-(3,4-difluorobenzyl)piperazin-1-yl)ethyl)benzamide], for which the “Triple reuptake inhibition (Ratio %) SERT” value at serotonin transporter came out at 113.34%. The “Triple reuptake inhibition (Ratio %) DAT” value on dopamine transporter is on record as 85.54%. Besides, the “Triple reuptake inhibition (Ratio %) NET” value in assay [1] was determined as 82.44%.

With `O=C(NCCN1CCC(Cc2ccc(Cl)c(Cl)c2)CC1)c1ccc(Cl)c(Cl)c1` [Example 17, 3,4-dichloro-N-(2-(4-(3,4-dichlorobenzyl)piperidin-1-yl)ethyl)benzamide], on serotonin transporter, the “Triple reuptake inhibition (Ratio %) SERT” value is 4.81%. For the same compound, the “Triple reuptake inhibition (Ratio %) DAT” value on dopamine transporter was 66.05%. For the same compound, the “Triple reuptake inhibition (Ratio %) NET” value in assay [1] is 88.67%.

With `O=C(NCCN1CCC(Cc2ccccc2)CC1)c1ccc(Cl)c(Cl)c1` [Example 18, N-(2-(4-benzylpiperidin-1-yl)ethyl)-3,4-dichlorobenzamide], the “Triple reuptake inhibition (Ratio %) SERT” value on serotonin transporter stood at 47.45%. Further, at dopamine transporter, the “Triple reuptake inhibition (Ratio %) DAT” value amounted to 68.93%. For the same compound, the “Triple reuptake inhibition (Ratio %) NET” value in assay [1] amounted to 67.88%.

For the compound `O=C(NCCN1CCC(Cc2ccc(Cl)c(Cl)c2)CC1)c1cc2ccccc2[nH]1` [Example 19, N-(2-(4-(3,4-dichlorobenzyl)piperidin-1-yl)ethyl)-1H-indol-2-carboxamide], at serotonin transporter, the “Triple reuptake inhibition (Ratio %) SERT” value came to 40.39% and the concentration for half-maximal inhibition (IC50) was 0.51 µM. Also, at dopamine transporter, the “Triple reuptake inhibition (Ratio %) DAT” value is reported as 36.79% and the IC50 was found to be 0.59 µM. Moreover, in assay [1], the “Triple reuptake inhibition (Ratio %) NET” value was determined as 94.93% and the IC50 is > 10 µM.

In the case of `Cc1c(C(=O)NCCN2CCC(Cc3ccccc3)CC2)[nH]c2ccccc12` [Example 20, N-(2-(4-benzylpiperidin-1-yl)ethyl)-3-methyl-1H-indol-2-carboxamide], at serotonin transporter, the “Triple reuptake inhibition (Ratio %) SERT” value came to 83.11%. On dopamine transporter, the “Triple reuptake inhibition (Ratio %) DAT” value is recorded as 43.53% and the IC50 came out at 1.37 µM. For the same compound, the “Triple reuptake inhibition (Ratio %) NET” value in assay [1] worked out at 85.70%.

In the case of `O=C(NCCN1CCN(c2cccc(C(F)(F)F)c2)CC1)c1cc2ccccc2[nH]1` [Example 21, N-(2-(4-(3-(trifluoromethyl)phenyl)piperazin-1-yl)ethyl)-1H-indol-2-carboxamide], at serotonin transporter, the “Triple reuptake inhibition (Ratio %) SERT” value is 86.98%. Also, the “Triple reuptake inhibition (Ratio %) DAT” value at dopamine transporter amounted to 94.30%. Also, the “Triple reuptake inhibition (Ratio %) NET” value in assay [1] is 97.95%.
